These results are taken from ChEMBL document CHEMBL1201862, “PubChem BioAssay data set” (2004).

The target of experiment [1] is T1, Sentrin-specific protease 6 (Homo sapiens, UniProt Q9GZR1).
T1 sequence (Q9GZR1 whole entry): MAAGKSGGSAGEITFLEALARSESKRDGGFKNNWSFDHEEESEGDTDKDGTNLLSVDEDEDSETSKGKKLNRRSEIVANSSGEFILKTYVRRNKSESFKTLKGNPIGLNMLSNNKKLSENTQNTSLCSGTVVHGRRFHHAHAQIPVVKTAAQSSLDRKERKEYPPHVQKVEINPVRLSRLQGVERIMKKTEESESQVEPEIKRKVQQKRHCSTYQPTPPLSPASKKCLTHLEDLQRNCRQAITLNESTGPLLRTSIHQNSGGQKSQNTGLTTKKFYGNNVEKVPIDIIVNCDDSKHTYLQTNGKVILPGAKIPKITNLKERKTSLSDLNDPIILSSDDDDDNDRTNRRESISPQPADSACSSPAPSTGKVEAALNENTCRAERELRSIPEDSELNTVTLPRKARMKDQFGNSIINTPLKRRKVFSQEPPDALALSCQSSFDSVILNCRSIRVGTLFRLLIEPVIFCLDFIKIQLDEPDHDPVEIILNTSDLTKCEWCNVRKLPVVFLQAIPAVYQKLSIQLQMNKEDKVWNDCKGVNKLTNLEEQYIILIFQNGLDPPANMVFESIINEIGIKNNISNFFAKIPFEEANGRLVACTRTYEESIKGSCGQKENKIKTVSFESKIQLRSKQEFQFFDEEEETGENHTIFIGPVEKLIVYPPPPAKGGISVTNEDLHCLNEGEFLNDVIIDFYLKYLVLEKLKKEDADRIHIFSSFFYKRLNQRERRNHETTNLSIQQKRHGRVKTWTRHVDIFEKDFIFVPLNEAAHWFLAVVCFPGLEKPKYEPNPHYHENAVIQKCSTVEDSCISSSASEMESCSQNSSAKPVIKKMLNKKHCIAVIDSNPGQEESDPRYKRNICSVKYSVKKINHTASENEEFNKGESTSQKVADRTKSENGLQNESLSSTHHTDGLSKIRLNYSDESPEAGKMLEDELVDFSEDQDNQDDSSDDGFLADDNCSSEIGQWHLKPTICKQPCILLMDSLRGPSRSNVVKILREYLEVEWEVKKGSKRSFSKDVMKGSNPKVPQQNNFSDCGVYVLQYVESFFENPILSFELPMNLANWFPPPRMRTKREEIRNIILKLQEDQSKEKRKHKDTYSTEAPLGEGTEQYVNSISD
Put plainly: SAR Analysis of small molecule inhibitors of Sentrin-specific protease 6 (SENP6) using a Luminescent assay. [Related pubchem assays (depositor defined):AID2582, AID2599]. Format: functional.

Experiment [2] can be described thus: cytotoxicity toward HCT116 cells – cell-based, CellTiter-Glo luminescence, IC50, dose response (AID 1117332). Type of experiment: functional. As to conditions: HCT-116. (In general: In ATP-based viability assays light output follows the ATP content of the culture.)
The target of experiment [3] is T2, Zinc finger protein mex-5 (Caenorhabditis elegans, UniProt Q9XUB2).
T2 sequence (Q9XUB2 whole entry): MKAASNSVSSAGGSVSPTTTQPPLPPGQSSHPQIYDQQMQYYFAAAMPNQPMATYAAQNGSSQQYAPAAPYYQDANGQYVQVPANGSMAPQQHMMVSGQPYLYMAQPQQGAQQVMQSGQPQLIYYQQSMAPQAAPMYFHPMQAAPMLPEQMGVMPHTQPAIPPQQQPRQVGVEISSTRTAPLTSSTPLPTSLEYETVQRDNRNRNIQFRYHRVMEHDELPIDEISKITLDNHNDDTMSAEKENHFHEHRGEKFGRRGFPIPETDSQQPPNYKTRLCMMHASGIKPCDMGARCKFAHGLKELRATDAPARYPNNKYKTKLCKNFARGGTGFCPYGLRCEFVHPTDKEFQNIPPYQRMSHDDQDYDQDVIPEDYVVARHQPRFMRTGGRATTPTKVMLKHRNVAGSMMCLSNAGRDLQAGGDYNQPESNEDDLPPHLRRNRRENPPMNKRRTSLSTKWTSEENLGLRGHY
Put plainly: MEX-5/TCR-2 RNA interaction inhibitors, dose response, biochemical, C. elegans, fluorescence polarization (AID 1960).

The target of experiment [4] is T3, Replicative DNA helicase DnaB (Mycobacterium tuberculosis, UniProt P9WMR3).
T3 sequence (P9WMR3 whole entry): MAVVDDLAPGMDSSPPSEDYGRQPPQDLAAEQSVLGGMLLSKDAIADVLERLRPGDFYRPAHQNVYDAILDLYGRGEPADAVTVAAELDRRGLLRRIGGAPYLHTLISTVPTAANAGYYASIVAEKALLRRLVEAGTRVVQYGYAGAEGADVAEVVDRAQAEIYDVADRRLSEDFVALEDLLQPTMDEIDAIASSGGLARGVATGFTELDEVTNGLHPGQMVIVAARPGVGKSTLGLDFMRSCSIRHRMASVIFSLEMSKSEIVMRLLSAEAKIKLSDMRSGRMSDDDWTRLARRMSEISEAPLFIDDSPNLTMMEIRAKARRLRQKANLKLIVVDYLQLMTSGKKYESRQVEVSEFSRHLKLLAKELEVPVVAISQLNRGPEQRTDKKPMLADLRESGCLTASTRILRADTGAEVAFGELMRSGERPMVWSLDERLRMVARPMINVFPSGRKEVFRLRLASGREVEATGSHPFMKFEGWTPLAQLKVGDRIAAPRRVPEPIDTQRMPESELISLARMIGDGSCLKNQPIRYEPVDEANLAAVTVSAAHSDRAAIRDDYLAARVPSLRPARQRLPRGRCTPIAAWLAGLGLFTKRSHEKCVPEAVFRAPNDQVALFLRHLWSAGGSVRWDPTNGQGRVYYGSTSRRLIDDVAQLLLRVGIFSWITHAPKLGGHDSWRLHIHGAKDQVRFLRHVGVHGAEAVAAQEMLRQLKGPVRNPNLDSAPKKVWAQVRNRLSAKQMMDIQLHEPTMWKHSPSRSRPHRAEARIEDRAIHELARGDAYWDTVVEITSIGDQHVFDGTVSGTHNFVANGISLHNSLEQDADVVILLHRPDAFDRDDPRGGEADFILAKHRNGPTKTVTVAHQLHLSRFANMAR
As to the kind of experiment: DnaB intein splicing inhibitors, dose response, biochemical, cell-free fluorescence (AID 449749). Format: functional.

Calls of active or inactive are those of the source.

One may read the IC50 as the midpoint of a concentration-inhibition curve. With `Oc1ccc(/C=N/Nc2cc(N3CCCC3)nc(N3CCCC3)n2)cc1O`, the IC50 in experiment [1] was 10.5 µM (active).

A word on the EC50: it is the concentration giving half of the maximal effect. The term AC50 denotes the concentration at which the activity in the assay is half-maximal. Consider `Cc1cc2nc3ccc(N(C)C)cc3[s+]c2cc1N` [TOLONIUM CHLORIDE], for which the IC50 in experiment [2] is 2.78 µM (active). Further, the 50% effective concentration (EC50) in experiment [3] was 35.6 µM (active). The AC50 in experiment [4] was 77.1 µM (active).
